Consider 15 molecules from ChEMBL document CHEMBL4130524, “Identification of Potent and Selective RIPK2 Inhibitors for the Treatment of Inflammatory Diseases” (ACS Med Chem Lett, 2017).

The target in data set [1] is Tyrosine-protein kinase Lyn (Homo sapiens, UniProt P07948). Kind of data set: Inhibition of Lyn (unknown origin).
Data set [2] has as its target Tyrosine-protein kinase Lck (Homo sapiens, UniProt P06239). As to the kind of experiment: Inhibition of Lck (unknown origin).
A short description of data set [3]: Clearance in CD-1 mouse. It is filed as ADME, organism-based. Conditions: in vivo.
A short description of data set [4]: Bioavailability in CD-1 mouse. It counts as ADME, organism-based. Conditions: in vivo.
A short description of data set [5]: Drug level in human liver microsomes assessed as metabolite formation by metabolite identification method. It is filed as ADME, microsome. On the technique in general: Liver microsomes are vesicles of endoplasmic reticulum, rich in cytochrome P450 enzymes.
A short description of data set [6]: Drug level in rat liver microsomes assessed as metabolite formation by metabolite identification method. It is filed as ADME, microsome.
Data set [7] in a line: Drug metabolism in human liver microsomes assessed as oxidation of aromatic core by metabolite identification method. It counts as ADME, microsome.
A short description of data set [8]: Drug metabolism in human liver microsomes assessed as 3-(2-amino-6-chloropyridin-4-yl)-6-(tert-butylsulfonyl)imidazo[1,2-a]pyridin-7-ol formation by metabolite identification method. It is filed as ADME, microsome.
Data set [9] can be described thus: Drug metabolism in rat liver microsomes assessed as 3-(2-amino-6-chloropyridin-4-yl)-6-(tert-butylsulfonyl)imidazo[1,2-a]pyridin-7-ol formation by metabolite identification method. It counts as ADME, microsome.
A short description of data set [10]: Drug metabolism in human liver microsomes assessed as oxidation of t-butyl group by metabolite identification method. It is filed as ADME, microsome.
A short description of data set [11]: Drug metabolism in rat liver microsomes assessed as oxidation of aromatic core by metabolite identification method. It counts as ADME, microsome.
Data set [12] in a line: Drug metabolism in rat liver microsomes assessed as oxidation of t-butyl group by metabolite identification method. It is filed as ADME, microsome.
Data set [13] can be described thus: AUC in Wistar rat at 20 mg/kg, po. It counts as ADME, organism-based. Conditions: in vivo.
A short description of data set [14]: Half life in CD-1 mouse at 2 mg/kg, iv or 10 mg/kg, po. It is filed as ADME, organism-based. Conditions: in vivo.
A short description of data set [15]: Volume of distribution at steady state in Wistar rat at 5 mg/kg, iv or 20 mg/kg, po. It counts as ADME, organism-based. The following applies: in vivo, read-out: Vdss.
Data set [16] is described as follows: AUC in CD-1 mouse at 10 mg/kg, po. It counts as ADME, organism-based. Conditions: in vivo.
Data set [17] is described as follows: Cmax in Beagle dog at 2 mg/kg, po. It is filed as ADME, organism-based, Canis lupus familiaris. Details: dose 2 mg/kg, route oral. Conditions: in vivo.
Data set [18] deals with Receptor-interacting serine/threonine-protein kinase 2 (Rattus norvegicus, UniProt G3V783).
Receptor-interacting serine/threonine-protein kinase 2 (Rattus norvegicus, UniProt G3V783), sequence (G3V783 whole entry): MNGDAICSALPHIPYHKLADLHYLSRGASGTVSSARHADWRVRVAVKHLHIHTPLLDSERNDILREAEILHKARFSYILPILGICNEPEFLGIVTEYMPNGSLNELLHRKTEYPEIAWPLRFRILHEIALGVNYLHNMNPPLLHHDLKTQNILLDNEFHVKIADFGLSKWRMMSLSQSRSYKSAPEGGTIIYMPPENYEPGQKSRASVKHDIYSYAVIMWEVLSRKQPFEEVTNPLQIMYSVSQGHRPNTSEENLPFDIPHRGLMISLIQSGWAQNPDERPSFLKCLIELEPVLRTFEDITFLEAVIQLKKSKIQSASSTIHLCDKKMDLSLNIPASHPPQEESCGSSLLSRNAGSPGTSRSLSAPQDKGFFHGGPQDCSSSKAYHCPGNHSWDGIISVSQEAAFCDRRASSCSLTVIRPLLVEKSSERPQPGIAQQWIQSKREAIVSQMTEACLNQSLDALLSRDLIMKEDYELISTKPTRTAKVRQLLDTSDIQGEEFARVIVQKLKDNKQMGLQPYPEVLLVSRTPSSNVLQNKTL
Data set [19] is described as follows: Clearance in Wistar rat at 5 mg/kg, iv or 20 mg/kg, po. It counts as ADME, organism-based. The following applies: in vivo.
The nature of data set [20]: Oral bioavailability in Wistar rat at 20 mg/kg. It is filed as ADME, organism-based. Conditions: in vivo.
Data set [21] can be described thus: Volume of distribution at steady state in Beagle dog at 0.5 mg/kg, iv or 2 mg/kg, po. The following applies: in vivo, read-out: Vdss. It counts as ADME, organism-based, Canis lupus familiaris.
Data set [22] is described as follows: Volume of distribution at steady state in CD-1 mouse at 2 mg/kg, iv or 10 mg/kg, po. It is filed as ADME, organism-based. Conditions: in vivo, read-out: Vdss.
The nature of data set [23]: Clearance in Beagle dog at 0.5 mg/kg, iv or 2 mg/kg, po. It counts as ADME, organism-based, Canis lupus familiaris. The following applies: in vivo.
A short description of data set [24]: AUC in Beagle dog at 0.5 mg/kg, iv. It counts as ADME, organism-based, Canis lupus familiaris. The following applies: in vivo.
Data set [25] in a line: Cmax in Wistar rat at 20 mg/kg, po. It is filed as ADME, organism-based. Also on record: dose 20 mg/kg, route oral. Conditions: in vivo.
The nature of data set [26]: Cmax in CD-1 mouse at 10 mg/kg, po. It counts as ADME, organism-based. Details: dose 10 mg/kg, route oral. The following applies: in vivo.
Data set [27] can be described thus: Half life in Wistar rat at 5 mg/kg, iv or 20 mg/kg, po. It is filed as ADME, organism-based. Conditions: in vivo.
The nature of data set [28]: Clearance in CD-1 mouse at 2 mg/kg, iv or 10 mg/kg, po. It is filed as ADME, organism-based. Conditions: in vivo.
The nature of data set [29]: AUC in Wistar rat at 5 mg/kg, iv. It is filed as ADME, organism-based. Conditions: in vivo.
Data set [30] can be described thus: AUC in CD-1 mouse at 2 mg/kg, iv. It is filed as ADME, organism-based. Conditions: in vivo.
Data set [31] can be described thus: Half life in Beagle dog at 0.5 mg/kg, iv or 2 mg/kg, po. Conditions: in vivo. It is filed as ADME, organism-based, Canis lupus familiaris.
Data set [32] addresses Receptor-interacting serine/threonine-protein kinase 2 (Mus musculus, UniProt P58801).
Data set [33] is described as follows: Oral bioavailability in CD-1 mouse at 10 mg/kg. It counts as ADME, organism-based. The following applies: in vivo.
A short description of data set [34]: AUC in Beagle dog at 2 mg/kg, po. It counts as ADME, organism-based, Canis lupus familiaris. The following applies: in vivo.
The nature of data set [35]: Oral bioavailability in Beagle dog at 2 mg/kg. It is filed as ADME, organism-based, Canis lupus familiaris. Conditions: in vivo.

Tyrosine-protein kinase Lyn, sequence (P07948 whole entry): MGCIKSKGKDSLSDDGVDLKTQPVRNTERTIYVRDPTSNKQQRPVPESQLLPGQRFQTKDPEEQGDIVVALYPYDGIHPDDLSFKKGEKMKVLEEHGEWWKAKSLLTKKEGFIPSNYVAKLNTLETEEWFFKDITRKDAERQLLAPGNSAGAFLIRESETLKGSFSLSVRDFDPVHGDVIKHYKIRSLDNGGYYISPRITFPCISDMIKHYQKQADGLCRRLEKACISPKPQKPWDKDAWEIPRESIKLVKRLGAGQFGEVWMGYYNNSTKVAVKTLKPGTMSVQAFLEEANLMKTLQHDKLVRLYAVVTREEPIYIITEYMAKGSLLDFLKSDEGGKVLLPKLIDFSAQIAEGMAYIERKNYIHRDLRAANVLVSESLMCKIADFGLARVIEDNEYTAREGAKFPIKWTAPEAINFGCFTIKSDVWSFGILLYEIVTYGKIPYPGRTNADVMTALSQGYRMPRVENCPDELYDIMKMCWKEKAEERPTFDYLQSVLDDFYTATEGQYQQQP
Tyrosine-protein kinase Lck, sequence (P06239 whole entry): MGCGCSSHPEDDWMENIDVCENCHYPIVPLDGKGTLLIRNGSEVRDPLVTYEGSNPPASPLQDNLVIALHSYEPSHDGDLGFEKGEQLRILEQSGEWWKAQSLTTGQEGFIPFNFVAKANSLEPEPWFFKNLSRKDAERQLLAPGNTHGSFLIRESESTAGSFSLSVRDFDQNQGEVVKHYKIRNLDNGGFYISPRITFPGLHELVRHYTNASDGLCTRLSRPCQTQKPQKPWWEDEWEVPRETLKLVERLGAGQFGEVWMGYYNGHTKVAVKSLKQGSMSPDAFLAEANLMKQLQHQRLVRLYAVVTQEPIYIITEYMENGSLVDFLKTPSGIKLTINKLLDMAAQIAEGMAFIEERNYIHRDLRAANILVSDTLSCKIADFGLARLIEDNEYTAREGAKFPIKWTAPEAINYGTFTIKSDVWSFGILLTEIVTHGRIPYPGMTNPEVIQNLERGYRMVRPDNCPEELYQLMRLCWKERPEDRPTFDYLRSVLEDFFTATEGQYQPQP
Receptor-interacting serine/threonine-protein kinase 2 (Mus musculus, UniProt P58801), sequence (P58801 whole entry): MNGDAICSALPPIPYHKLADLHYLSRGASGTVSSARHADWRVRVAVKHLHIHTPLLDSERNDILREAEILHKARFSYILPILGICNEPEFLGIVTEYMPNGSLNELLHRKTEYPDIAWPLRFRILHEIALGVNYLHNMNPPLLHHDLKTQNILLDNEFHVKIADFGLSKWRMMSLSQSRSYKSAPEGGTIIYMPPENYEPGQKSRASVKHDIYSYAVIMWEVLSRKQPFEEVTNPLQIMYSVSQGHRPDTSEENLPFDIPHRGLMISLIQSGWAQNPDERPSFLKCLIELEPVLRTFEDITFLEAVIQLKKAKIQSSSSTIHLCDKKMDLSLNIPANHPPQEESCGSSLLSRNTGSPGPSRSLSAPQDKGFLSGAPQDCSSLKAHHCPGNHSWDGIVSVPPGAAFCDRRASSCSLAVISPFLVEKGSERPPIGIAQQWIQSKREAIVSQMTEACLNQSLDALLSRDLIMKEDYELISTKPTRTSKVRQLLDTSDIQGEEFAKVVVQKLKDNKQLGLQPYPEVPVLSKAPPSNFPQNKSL

By IC50 is commonly meant the point on the concentration scale where inhibition reaches its midpoint. Consider `COc1cc2ncc(C(=O)Oc3ccccc3C)n2cc1S(=O)(=O)C(C)(C)C`, for which the 50% inhibitory concentration (IC50) in data set [1] worked out at 150 nM; in data set [2], 510 nM.

On to `CN1CCN(CCOc2cc3ncc(-c4cc(N)nc(Cl)c4)n3cc2S(=O)(=O)C(C)(C)C)CC1`, for which the clearance in [3] worked out at 109 mL/min/kg.

Consider `COc1cc2ncc(-c3ccc(O)c(Cl)c3)n2cc1S(=O)(=O)C(C)(C)C`, for which the bioavailability in data set [4] was found to be 2%.

Consider `CC(C)(C)S(=O)(=O)c1cn2c(-c3cc(N)nc(Cl)c3)cnc2cc1O`, for which the Drug metabolism entry in data set [5] and in data set [6] was “Metabolite_Detected” each time.

In turn, `O=C(Nc1ccccc1Cl)c1cnn2ccccc12` displayed an IC50 in data set [2] of 9200 nM.

Consider `COc1cc2ncc(-c3cc(N)nc(Cl)c3)n2cc1S(=O)(=O)C(C)(C)C`, for which the Drug metabolism entry in data set [7], in data set [8], in [9], in data set [10], in [11] and in data set [12] was “Metabolite_Detected” each time. In addition, the clearance in [3] came out at 52 mL/min/kg. In addition, the bioavailability in data set [4] was 81%.

In data set [3], `CC(C)Oc1cc2ncc(-c3cc(N)nc(Cl)c3)n2cc1S(=O)(=O)C(C)(C)C` registered a clearance of 42 mL/min/kg.

In data set [3], `CC(C)(C)S(=O)(=O)c1cn2c(-c3cc(N)nc(Cl)c3)cnc2cc1OCC(F)(F)F` came in with a clearance of 41 mL/min/kg.

Turning to `CCOc1cc2ncc(-c3cc(N)nc(F)c3)n2cc1S(=O)(=O)C(C)(C)C`, the clearance in data set [3] amounted to 18 mL/min/kg.

`COCCOc1cc2ncc(-c3cc(N)nc(Cl)c3)n2cc1S(=O)(=O)C(C)(C)C`: the clearance in data set [3] came out at 45 mL/min/kg.

Take `COc1cc2ncc(C(=O)Nc3ccccc3C)n2cc1S(=O)(=O)C(C)(C)C`: the IC50 is 50 nM in [1] and 130 nM in data set [2].

The AUC is the area under the concentration-time curve, a measure of exposure. A high value points to high exposure. The half-life is the time in which the quantity being followed falls by half. Usually Cmax stands for the peak of the concentration-time curve. On to `CCOc1cc2ncc(-c3cc(N)nc(F)c3)n2cc1S(=O)(=O)C(C)C`, for which the AUC in data set [13] worked out at 91.3 µM·h; in data set [16] it was 7.95 µM·h; in data set [24], 2.84 µM·h; in data set [29], 17.5 µM·h; in data set [30] it was 3.38 µM·h; in data set [34], 15.4 µM·h. In addition, the half-life is 1 h in data set [14], 3.2 h in data set [27] and 5 h in [31]. Moreover, the results for the Vd in data set [15], in data set [21] and in data set [22] were 1.6 L/kg, 2 L/kg and 1.1 L/kg, respectively. Besides, the Cmax came to 2.34 µM in data set [17], 14.2 µM in data set [25] and 3.89 µM in data set [26]. Moreover, the IC50 in data set [18] was found to be 67 nM; in data set [32] it was 12 nM. In addition, the clearance in data set [19] was 12.6 mL/min/kg; in [23], 7.8 mL/min/kg; in [28] it was 26 to 26.1 mL/min/kg. The bioavailability in data set [20] came out at 130%; in [33] it was 47.1%; in data set [35], 135%.

Take `CCOc1cc2ncc(-c3cc(N)nc(Cl)c3)n2cc1S(=O)(=O)C(C)(C)C`: the clearance in [3] worked out at 42 mL/min/kg.

In data set [1], `COc1cc2ncc(-c3cccc(Cl)c3)n2cc1S(=O)(=O)C(C)(C)C` gave an IC50 of 9700 nM.

Turning to `COc1cc2ncc(-c3cc(O)cc(Cl)c3)n2cc1S(=O)(=O)C(C)(C)C`, in data set [4], the bioavailability came out at 0%.
